Data reported in patent US20170231929A1, “METHOD FOR ENHANCING IMMUNE CELL FUNCTION AND METHOD FOR ASSESSING IMMUNE CELL MULTIFUNCTIONALITY” (NATIONAL UNIVERSITY CORPORATION OKAYAMA UNIVERSITY, priority 2014, published 2017).
“And” between values parts separate entries of the source, which are not always exact repeats. Equal entries are not always repeated. “Also recorded” adds a separate entry of the source.

Tested on: CD8^+T cells
Assay: Multifunctionality of CD8^+T cells of healthy subjects after metformin treatment of PBMC (flow cytometer)
Type: cell-based, human
Method: 1. Peripheral blood was obtained from a test subject, and PBMC was separated by a density-gradient centrifugation using a lymphocyte-separating reagent Ficoll-Paque® (GE Healthcare). 3 mL of Ficoll-Paque® was dispensed in a 15-mL tube. 8 mL of the peripheral blood was gently placed on the reagent. At this time, care should be taken not to mix Ficoll-Paque® with the peripheral blood. Centrifugation was performed at 400 g for 30 minutes, thereby separating PBMC. 2. The separated PBMC was preserved in a −150° C. freezer or liquid nitrogen using Bambang Car cell preservation liquid by adjusting the cell number to 2.0×10^6 cell/tube. 3. In the test, the thawed PBMC was cultured for 1 to 10 hours in the presence or absence of […]. The culture was performed using a 24-well plate, and the cell number was adjusted to about 5.0×10^5 cell/well. 4. The cells were collected after 1 to 10 hours, washed with medium, and cultured in the presence of a cell activation reagent (potent nanomolar activator of protein kinase C (PMA, 50 ng/mL), ionomycin (1 μM)) for 6 hours, thereby non-specifically stimulating T cells. At this time, BD Gorgi Stop™ was added to keep the produced cytokines inside the cells. 5. The cells were isolated and washed twice with a cell-staining buffer. First, staining of CD8, PD-1, Tim-3, which are molecules expressed on the T cell surface, was performed. In the staining, a staining buffer was added in an amount of 50 μL per sample. The culture was performed at 4° C. for 30 minutes. 6. The cells were collected and washed twice with a cell-staining buffer. 500 μL of BD Cytofix/Cytoperm was added and cultured at 4° C. for 30 minutes. 7. The cells were collected and washed twice with BD Perm/Wash™. Staining of cytokines IL-2, TNFα, and IFNγ was performed. In the staining, BD Perm/Wash™ was added in an amount of 50 μL per sample. The culture was performed at 4° C. for 30 minutes. 8. The cells were collected and washed twice with BD Perm/Wash™, and 200 μL of BD Perm/Wash™ was added. 9. Analysis was performed using a FACSCanto™ II flow cytometer (Becton, Dickinson and Company).
Among the PBMC treated with PMA/ionomycin in the method shown in (2) above, first, a gate was applied to CD8^+T cells using a FACSCanto™ II flow cytometer (Becton, Dickinson and Company), and then […] were removed by FSC-A and FSC-H. Using parameters FSC-A and SSC-A, a gate was applied to a lymphocyte group, thereby analyzing expression of PD-1 and Tim-3. Further, intracellular cytokines IFNγ, TNFα, and IL-2 were stained, and multifunctionality of CD8^+T cells contained in the PBMC was analyzed (FIG. 1).
PBMC obtained from healthy subjects (N=10) was cultured for an hour in the presence or absence of metformin by the method shown in (2). After metformin was removed, the PBMC was subjected to stimulating culture with PMA/ionomycin for 6 hours by the method shown in (3). Among the resulting PBMC, CD8^+T cells capable of simultaneously producing three kinds of cytokines, i.e., IFNγ, TNFα, and IL-2, were detected. The CD8^+T cells untreated with metformin were determined to be 0.11%, and the CD8^+T cells treated with metformin were determined to be 0.09% (FIG. 2). Accordingly, it was judged that multifunctionality of CD8^+T cells was not increased by a metformin treatment in healthy subjects.
In the PBMC of healthy subjects treated as above, the ratios of CD8^+T cells producing three kinds of cytokines (IFNγ/TNFα/IL-2), CD8^+T cells producing two kinds of cytokines (IFNγ/TNFα or IFNγ/IL-2), and CD8^+T cells producing one kind of cytokine (IFNγ) to the entire CD8^+T cells were calculated and shown in Table 1. The calculation results were compared between the metformin-untreated group (control) and the metformin-treated group (metformin).

[1] = PD-1+, Tim-3+, Healthy Subjects, subjects/total
[2] = PD-1+, Tim-3−, Healthy Subjects, subjects/total
[3] = PD-1−, Tim-3+, Healthy Subjects, subjects/total
[4] = PD-1−, Tim-3−, Healthy Subjects, subjects/total
[5] = Total CD8T, Healthy Subjects, subjects/total
[6] = healthy subjects, PBMC cultured an hour with metformin, then PMA/ionomycin 6 hours, each table row = one subject
[7] = healthy subjects, each table row = one subject
[8] = total CD8^+T cells, healthy subjects

## CN(C)C(=N)N=C(N)N [metformin]
[1]
  Decrease, IFNγ 1-cytokine-producing cell: 4/10
  Decrease, IFNγ/IL-2 2-cytokine-producing cell: 4/10
  Decrease, IFNγ/TNFα 2-cytokine-producing cell: 6/10
  Decrease, IFNγ/TNFα/IL2 3-cytokine-producing cell: 1/10
  Increase, IFNγ 1-cytokine-producing cell: 6/10
  Increase, IFNγ/IL-2 2-cytokine-producing cell: 2/10
  Increase, IFNγ/TNFα 2-cytokine-producing cell: 3/10
  Increase, IFNγ/TNFα/IL2 3-cytokine-producing cell: 3/10 and 5/10
  No Change, IFNγ 1-cytokine-producing cell: 0/10
  No Change, IFNγ/IL-2 2-cytokine-producing cell: 4/10
  No Change, IFNγ/TNFα 2-cytokine-producing cell: 1/10
  No Change, IFNγ/TNFα/IL2 3-cytokine-producing cell: 4/10
[2]
  Decrease, IFNγ 1-cytokine-producing cell: 5/10
  Decrease, IFNγ/IL-2 2-cytokine-producing cell: 6/10
  Decrease, IFNγ/TNFα 2-cytokine-producing cell: 4/10
  Decrease, IFNγ/TNFα/IL2 3-cytokine-producing cell: 5/10
  Increase, IFNγ 1-cytokine-producing cell: 2/10
  Increase, IFNγ/IL-2 2-cytokine-producing cell: 3/10
  Increase, IFNγ/TNFα 2-cytokine-producing cell: 3/10
  Increase, IFNγ/TNFα/IL2 3-cytokine-producing cell: 3/10
  No Change, IFNγ 1-cytokine-producing cell: 3/10
  No Change, IFNγ/IL-2 2-cytokine-producing cell: 1/10
  No Change, IFNγ/TNFα 2-cytokine-producing cell: 3/10
  No Change, IFNγ/TNFα/IL2 3-cytokine-producing cell: 2/10
[3]
  Decrease, IFNγ 1-cytokine-producing cell: 6/10
  Decrease, IFNγ/IL-2 2-cytokine-producing cell: 4/10
  Decrease, IFNγ/TNFα 2-cytokine-producing cell: 5/10
  Decrease, IFNγ/TNFα/IL2 3-cytokine-producing cell: 3/10
  Increase, IFNγ 1-cytokine-producing cell: 2/10
  Increase, IFNγ/IL-2 2-cytokine-producing cell: 1/10
  Increase, IFNγ/TNFα 2-cytokine-producing cell: 3/10
  Increase, IFNγ/TNFα/IL2 3-cytokine-producing cell: 1/10
  No Change, IFNγ 1-cytokine-producing cell: 2/10
  No Change, IFNγ/IL-2 2-cytokine-producing cell: 5/10
  No Change, IFNγ/TNFα 2-cytokine-producing cell: 2/10
  No Change, IFNγ/TNFα/IL2 3-cytokine-producing cell: 6/10
[4]
  Decrease, IFNγ 1-cytokine-producing cell: 4/10
  Decrease, IFNγ/IL-2 2-cytokine-producing cell: 5/10
  Decrease, IFNγ/TNFα 2-cytokine-producing cell: 4/10
  Decrease, IFNγ/TNFα/IL2 3-cytokine-producing cell: 7/10
  Increase, IFNγ 1-cytokine-producing cell: 2/10
  Increase, IFNγ/IL-2 2-cytokine-producing cell: 4/10
  Increase, IFNγ/TNFα 2-cytokine-producing cell: 4/10
  Increase, IFNγ/TNFα/IL2 3-cytokine-producing cell: 2/10
  No Change, IFNγ 1-cytokine-producing cell: 4/10
  No Change, IFNγ/IL-2 2-cytokine-producing cell: 1/10
  No Change, IFNγ/TNFα 2-cytokine-producing cell: 2/10
  No Change, IFNγ/TNFα/IL2 3-cytokine-producing cell: 1/10
Total CD8T, Healthy Subjects
  Increase + No Change, IFNγ/TNFα/IL2, share of subjects: 30%
[5]
  Decrease, IFNγ 1-cytokine-producing cell: 2/10
  Decrease, IFNγ/IL-2 2-cytokine-producing cell: 6/10
  Decrease, IFNγ/TNFα 2-cytokine-producing cell: 5/10
  Decrease, IFNγ/TNFα/IL2 3-cytokine-producing cell: 7/10
  Increase + No Change, IFNγ/TNFα/IL2: 3/10
  Increase, IFNγ 1-cytokine-producing cell: 4/10
  Increase, IFNγ/IL-2 2-cytokine-producing cell: 3/10
  Increase, IFNγ/TNFα 2-cytokine-producing cell: 3/10
  Increase, IFNγ/TNFα/IL2 3-cytokine-producing cell: 0/10
  No Change, IFNγ 1-cytokine-producing cell: 4/10
  No Change, IFNγ/IL-2 2-cytokine-producing cell: 1/10
  No Change, IFNγ/TNFα 2-cytokine-producing cell: 2/10
  No Change, IFNγ/TNFα/IL2 3-cytokine-producing cell: 3/10
Healthy subjects, FIG. 2, untreated with metformin 0.11%
  CD8^+T cells capable of simultaneously producing IFNγ, TNFα and IL-2, treated with metformin: 0.09%
[6]
  ratio of CD8^+T cells producing one kind of cytokine (IFNγ) to the entire CD8^+T cells, metformin: 13.18% and 16.70% and 8.18% and 11.64% and 4.62% and 1.68% and 6.23% and 0.95% and 1.87% and 12.00%
  ratio of CD8^+T cells producing two kinds of cytokines (IFNγ/IL-2) to the entire CD8^+T cells, metformin: 0.47% and 0.48% and 0.71% and 0.28% and 0.15% and 0.03% and 0.21% and 0.05% and 0.14% and 0.24%
  ratio of CD8^+T cells producing two kinds of cytokines (IFNγ/TNFα) to the entire CD8^+T cells, metformin: 31.38% and 3.54% and 32.26% and 11.52% and 16.84% and 1.50% and 11.17% and 0.12% and 1.08% and 3.98%
[7]
  change of IFNγ producing CD8^+T cell ratio by metformin treatment vs control: → (other cases with no significant differences); also recorded: ↑ (a 10% or more increase by a metformin treatment); also recorded: ↓ (a 10% or more decrease by a metformin treatment)
  change of IFNγ/IL-2 producing CD8^+T cell ratio by metformin treatment vs control: ↓ (a 10% or more decrease by a metformin treatment); also recorded: ↑ (a 10% or more increase by a metformin treatment); also recorded: → (other cases with no significant differences)
  change of IFNγ/TNFα producing CD8^+T cell ratio by metformin treatment vs control: ↓ (a 10% or more decrease by a metformin treatment); also recorded: ↑ (a 10% or more increase by a metformin treatment); also recorded: → (other cases with no significant differences)
Healthy subjects, judgement from FIG. 2
  multifunctionality of CD8^+T cells by a metformin treatment: not increased
[8]
  decrease in multifunctionality (three kinds of cytokines), share of subjects: 70%
  increase in multifunctionality (three kinds of cytokines), share of subjects: 0%
